Legend:
Test in all cases: biochemical
Set-up in all cases: Eurofins recombinant human kinase profiling, remaining kinase activity as % of control, 10 uM ATP
Details in all cases: ATP 10 uM; read-out: %Ctrl@10 μM
Abl (Q252H) (h) = target: T1, Abl (Q252H) (h) (Homo sapiens, UniProt P00519, Q252H)
T1 construct: gene ABL1
How it was run: (§1)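 Activity measured in a commercial panel of 401 recombinant human protein kinases run as a kinase profiling service.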

Aurora-A(h) = target: T2, Aurora-A(h) (Homo sapiens, UniProt O14965)
T2 construct: gene AURKA
How it was run: as §1

Axl(h) = Axl(h) (Homo sapiens, UniProt P30530)
Axl(h), sequence (P30530 whole entry): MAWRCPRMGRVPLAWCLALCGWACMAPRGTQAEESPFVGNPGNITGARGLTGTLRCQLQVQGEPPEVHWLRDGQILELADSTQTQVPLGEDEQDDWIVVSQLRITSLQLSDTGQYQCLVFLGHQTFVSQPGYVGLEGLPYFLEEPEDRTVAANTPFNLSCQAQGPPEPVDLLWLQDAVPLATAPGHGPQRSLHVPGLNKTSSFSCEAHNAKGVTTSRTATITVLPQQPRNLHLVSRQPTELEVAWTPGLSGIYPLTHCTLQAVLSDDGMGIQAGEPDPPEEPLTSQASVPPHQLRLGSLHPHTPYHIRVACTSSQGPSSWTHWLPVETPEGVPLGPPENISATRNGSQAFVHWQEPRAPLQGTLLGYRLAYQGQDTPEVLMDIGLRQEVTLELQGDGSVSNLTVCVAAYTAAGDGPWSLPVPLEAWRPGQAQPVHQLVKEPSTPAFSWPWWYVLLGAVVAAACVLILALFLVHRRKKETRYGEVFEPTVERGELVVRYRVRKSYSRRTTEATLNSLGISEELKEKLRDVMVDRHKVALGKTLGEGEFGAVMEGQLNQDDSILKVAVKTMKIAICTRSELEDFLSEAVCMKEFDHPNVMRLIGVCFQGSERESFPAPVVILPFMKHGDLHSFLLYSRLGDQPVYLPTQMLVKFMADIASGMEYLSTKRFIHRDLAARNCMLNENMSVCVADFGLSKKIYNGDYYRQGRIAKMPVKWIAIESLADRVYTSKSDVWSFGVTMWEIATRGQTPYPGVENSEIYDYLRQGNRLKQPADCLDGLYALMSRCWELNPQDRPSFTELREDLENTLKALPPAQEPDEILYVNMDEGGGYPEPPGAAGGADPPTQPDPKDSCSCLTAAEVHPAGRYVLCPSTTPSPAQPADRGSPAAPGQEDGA
How it was run: as §1

BrSK2(h) = BrSK2(h) (Homo sapiens, UniProt Q8IWQ3)
How it was run: as §1

CDK12/cyclinK(h) = CDK12/cyclinK(h) (Homo sapiens, UniProt Q9NYV4)
CDK12/cyclinK(h), sequence (Q9NYV4 whole entry): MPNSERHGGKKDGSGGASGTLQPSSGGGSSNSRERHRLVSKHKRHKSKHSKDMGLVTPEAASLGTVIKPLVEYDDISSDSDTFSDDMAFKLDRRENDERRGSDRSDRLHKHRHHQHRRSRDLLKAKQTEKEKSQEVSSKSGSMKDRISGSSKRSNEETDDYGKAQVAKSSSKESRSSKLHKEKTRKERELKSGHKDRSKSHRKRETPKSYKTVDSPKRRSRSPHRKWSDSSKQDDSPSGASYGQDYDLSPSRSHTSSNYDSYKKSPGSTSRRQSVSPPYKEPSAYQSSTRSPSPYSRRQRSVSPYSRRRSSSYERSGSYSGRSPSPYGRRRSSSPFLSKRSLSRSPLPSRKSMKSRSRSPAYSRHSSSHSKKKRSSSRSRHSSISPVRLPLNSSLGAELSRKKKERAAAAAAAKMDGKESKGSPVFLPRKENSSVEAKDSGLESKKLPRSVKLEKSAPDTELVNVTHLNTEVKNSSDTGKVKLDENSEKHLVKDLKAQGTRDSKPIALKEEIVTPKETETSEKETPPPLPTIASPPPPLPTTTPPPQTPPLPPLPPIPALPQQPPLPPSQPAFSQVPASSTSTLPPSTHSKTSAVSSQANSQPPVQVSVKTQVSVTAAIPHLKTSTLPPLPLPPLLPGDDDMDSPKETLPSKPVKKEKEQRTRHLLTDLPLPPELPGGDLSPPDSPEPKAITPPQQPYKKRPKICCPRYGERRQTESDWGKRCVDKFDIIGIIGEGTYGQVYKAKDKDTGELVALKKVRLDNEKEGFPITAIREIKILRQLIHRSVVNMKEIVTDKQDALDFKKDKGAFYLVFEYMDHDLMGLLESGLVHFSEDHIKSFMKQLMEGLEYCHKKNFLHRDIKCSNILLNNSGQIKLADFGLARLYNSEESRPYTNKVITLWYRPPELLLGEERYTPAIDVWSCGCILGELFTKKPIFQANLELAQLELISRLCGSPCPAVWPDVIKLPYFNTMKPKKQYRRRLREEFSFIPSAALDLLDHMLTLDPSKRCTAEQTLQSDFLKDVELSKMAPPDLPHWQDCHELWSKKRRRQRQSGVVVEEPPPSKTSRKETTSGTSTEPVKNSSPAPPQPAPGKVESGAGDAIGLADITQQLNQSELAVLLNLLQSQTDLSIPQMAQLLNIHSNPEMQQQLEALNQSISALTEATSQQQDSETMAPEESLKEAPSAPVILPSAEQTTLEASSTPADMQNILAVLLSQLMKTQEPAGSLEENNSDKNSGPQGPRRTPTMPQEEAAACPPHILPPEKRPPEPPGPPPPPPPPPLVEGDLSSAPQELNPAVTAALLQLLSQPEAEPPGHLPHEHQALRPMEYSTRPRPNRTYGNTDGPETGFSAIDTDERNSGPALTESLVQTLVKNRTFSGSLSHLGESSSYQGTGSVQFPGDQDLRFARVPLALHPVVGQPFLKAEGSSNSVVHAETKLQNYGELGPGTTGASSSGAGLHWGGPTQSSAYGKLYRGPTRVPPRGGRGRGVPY
CDK12/cyclinK(h), sequence (O75909 whole entry partner): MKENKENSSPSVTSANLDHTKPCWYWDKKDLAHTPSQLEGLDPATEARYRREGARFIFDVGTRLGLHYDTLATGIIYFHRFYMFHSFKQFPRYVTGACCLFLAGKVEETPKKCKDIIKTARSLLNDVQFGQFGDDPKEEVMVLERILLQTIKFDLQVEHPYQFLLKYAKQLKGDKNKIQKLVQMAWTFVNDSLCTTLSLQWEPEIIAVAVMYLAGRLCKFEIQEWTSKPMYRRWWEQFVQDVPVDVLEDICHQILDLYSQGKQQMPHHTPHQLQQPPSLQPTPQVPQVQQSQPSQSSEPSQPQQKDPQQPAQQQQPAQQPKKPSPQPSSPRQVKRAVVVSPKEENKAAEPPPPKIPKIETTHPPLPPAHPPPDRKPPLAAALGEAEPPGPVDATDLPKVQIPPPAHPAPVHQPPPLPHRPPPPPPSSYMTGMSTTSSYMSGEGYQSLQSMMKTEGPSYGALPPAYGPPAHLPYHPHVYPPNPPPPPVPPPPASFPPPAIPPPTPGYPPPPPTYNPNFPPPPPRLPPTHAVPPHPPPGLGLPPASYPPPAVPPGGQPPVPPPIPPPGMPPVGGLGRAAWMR
How it was run: as §1

CDK16/cyclinY(h) = CDK16/cyclinY(h) (Homo sapiens, UniProt Q00536)
How it was run: as §1

CHK2(I157T)(h) = target: T3, CHK2(I157T)(h) (Homo sapiens, UniProt O96017, I157T)
T3 construct: gene CHEK2
T3 sequence (O96017 whole entry I157T): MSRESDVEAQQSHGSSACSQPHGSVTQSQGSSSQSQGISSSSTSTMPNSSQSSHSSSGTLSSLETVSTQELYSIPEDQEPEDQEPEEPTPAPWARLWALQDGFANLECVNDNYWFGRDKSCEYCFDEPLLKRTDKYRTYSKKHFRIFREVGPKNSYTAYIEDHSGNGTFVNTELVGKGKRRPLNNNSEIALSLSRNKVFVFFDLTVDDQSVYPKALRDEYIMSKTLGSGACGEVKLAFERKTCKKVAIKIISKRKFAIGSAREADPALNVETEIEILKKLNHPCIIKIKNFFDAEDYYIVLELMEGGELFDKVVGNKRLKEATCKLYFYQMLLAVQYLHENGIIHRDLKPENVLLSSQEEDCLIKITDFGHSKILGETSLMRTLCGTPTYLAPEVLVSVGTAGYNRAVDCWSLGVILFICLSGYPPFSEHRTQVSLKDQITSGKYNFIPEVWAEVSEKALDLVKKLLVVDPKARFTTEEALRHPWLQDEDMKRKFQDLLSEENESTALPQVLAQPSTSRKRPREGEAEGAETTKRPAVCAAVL
How it was run: as §1

CK2(h) = target: T4, CK2(h) (Homo sapiens, UniProt P68400)
T4 construct: gene CSNK2A1
How it was run: as §1

CLK3(h) = CLK3(h) (Homo sapiens, UniProt P49761)
How it was run: as §1

EGFR(T790M)(h) = EGFR(T790M)(h) (Homo sapiens, UniProt P00533, T790M)
How it was run: as §1

Fgr(h) = Fgr(h) (Homo sapiens, UniProt P09769)
How it was run: as §1

GRK5(h) = GRK5(h) (Homo sapiens, UniProt P34947)
How it was run: as §1

IRAK4(h) = IRAK4(h) (Homo sapiens, UniProt Q9NWZ3)
IRAK4(h), sequence (Q9NWZ3 whole entry): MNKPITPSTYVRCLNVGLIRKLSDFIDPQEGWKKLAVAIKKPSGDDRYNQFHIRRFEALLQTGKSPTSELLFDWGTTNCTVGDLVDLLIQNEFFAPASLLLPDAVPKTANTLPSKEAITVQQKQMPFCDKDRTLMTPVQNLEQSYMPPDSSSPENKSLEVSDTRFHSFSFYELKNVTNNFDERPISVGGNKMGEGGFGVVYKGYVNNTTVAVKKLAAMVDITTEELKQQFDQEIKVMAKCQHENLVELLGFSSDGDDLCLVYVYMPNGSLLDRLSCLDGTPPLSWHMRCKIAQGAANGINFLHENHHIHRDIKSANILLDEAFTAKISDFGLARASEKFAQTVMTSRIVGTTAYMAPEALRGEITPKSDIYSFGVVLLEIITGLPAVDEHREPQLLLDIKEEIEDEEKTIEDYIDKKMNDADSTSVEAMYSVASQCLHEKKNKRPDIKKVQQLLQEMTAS
How it was run: as §1

MOK(h) = MOK(h) (Homo sapiens, UniProt Q9UQ07)
How it was run: as §1

MRCKβ(h) = target: T5, MRCKβ(h) (Homo sapiens, UniProt Q9Y5S2)
T5 construct: gene CDC42BPB
How it was run: as §1

PAK3(h) = PAK3(h) (Homo sapiens, UniProt O75914)
How it was run: as §1

PAK4(h) = PAK4(h) (Homo sapiens, UniProt O96013)
How it was run: as §1

PKR(h) = target: T6, PKR(h) (Homo sapiens, UniProt P19525)
T6 construct: gene EIF2AK2
How it was run: as §1

Src(1-530)(h) = target: T7, Src(1-530)(h) (Homo sapiens, UniProt P12931)
T7 construct: residues 1-530
How it was run: as §1

TLK2(h) = TLK2(h) (Homo sapiens, UniProt Q86UE8)
TLK2(h), sequence (Q86UE8 whole entry): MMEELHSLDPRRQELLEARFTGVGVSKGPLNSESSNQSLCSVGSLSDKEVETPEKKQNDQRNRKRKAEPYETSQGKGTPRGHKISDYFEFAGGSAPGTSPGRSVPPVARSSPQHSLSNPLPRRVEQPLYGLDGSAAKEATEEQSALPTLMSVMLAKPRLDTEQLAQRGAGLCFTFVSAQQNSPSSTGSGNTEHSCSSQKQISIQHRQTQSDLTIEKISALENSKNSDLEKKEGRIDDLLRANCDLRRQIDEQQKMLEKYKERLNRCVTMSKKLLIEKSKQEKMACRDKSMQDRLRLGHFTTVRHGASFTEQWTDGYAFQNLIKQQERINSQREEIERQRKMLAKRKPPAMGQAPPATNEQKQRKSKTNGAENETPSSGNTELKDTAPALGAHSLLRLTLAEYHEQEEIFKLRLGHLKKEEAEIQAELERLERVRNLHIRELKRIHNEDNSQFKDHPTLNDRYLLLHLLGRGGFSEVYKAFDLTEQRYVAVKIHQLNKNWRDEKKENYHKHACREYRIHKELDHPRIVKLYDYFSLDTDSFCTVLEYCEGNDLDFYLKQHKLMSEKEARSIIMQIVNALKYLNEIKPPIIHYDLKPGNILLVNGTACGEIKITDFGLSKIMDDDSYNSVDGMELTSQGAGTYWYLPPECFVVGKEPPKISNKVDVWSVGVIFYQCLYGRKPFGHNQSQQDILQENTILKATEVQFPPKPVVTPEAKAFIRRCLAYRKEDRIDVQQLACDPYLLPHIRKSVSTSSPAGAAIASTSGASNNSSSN
How it was run: as §1

ZAK(h) = target: T8, ZAK(h) (Homo sapiens, UniProt Q9NYL2)
T8 construct: gene MAP3K20
How it was run: as §1

p70S6K(h) = target: T9, p70S6K(h) (Homo sapiens, UniProt P23443)
T9 construct: gene RPS6KB1
How it was run: as §1

**Q.** Which remaining activity at 10 µM (Abl (Q252H) (h)) does the source give for `C1=C(c2nc(-c3cnn(C4CCNCC4)c3)cn3cc(-c4ccccc4)nc23)CCOC1` [YL-939] here?
**A.** The remaining activity at 10 µM was 122%.

**Q.** What about the remaining activity at 10 µM (Aurora-A(h)) of the same compound?
**A.** The remaining activity at 10 µM was 111%.

**Q.** And the remaining activity at 10 µM (Axl(h))?
**A.** The remaining activity at 10 µM was 84%.

**Q.** What about the remaining activity at 10 µM (BrSK2(h)) of the same compound?
**A.** The remaining activity at 10 µM was 101%.

**Q.** What about the remaining activity at 10 µM (CDK12/cyclinK(h)) of the same compound?
**A.** The remaining activity at 10 µM was 99%.

**Q.** And the remaining activity at 10 µM (CDK16/cyclinY(h))?
**A.** Its remaining activity at 10 µM is 80%.

**Q.** What about the remaining activity at 10 µM (CHK2(I157T)(h)) of the same compound?
**A.** Its remaining activity at 10 µM is 87%.

**Q.** And the remaining activity at 10 µM (CK2(h))?
**A.** The remaining activity at 10 µM was 97%.

**Q.** What about the remaining activity at 10 µM (CLK3(h)) of the same compound?
**A.** The remaining activity at 10 µM was 96%.

**Q.** What about the remaining activity at 10 µM (EGFR(T790M)(h)) of the same compound?
**A.** The remaining activity at 10 µM was 138%.

**Q.** What about the remaining activity at 10 µM (Fgr(h)) of the same compound?
**A.** The remaining activity at 10 µM was 76%.

**Q.** What about the remaining activity at 10 µM (GRK5(h)) of the same compound?
**A.** Its remaining activity at 10 µM is 72%.

**Q.** And the remaining activity at 10 µM (IRAK4(h))?
**A.** The remaining activity at 10 µM was 96%.

**Q.** And the remaining activity at 10 µM (MOK(h))?
**A.** The remaining activity at 10 µM was 88%.

**Q.** What about the remaining activity at 10 µM (MRCKβ(h)) of the same compound?
**A.** Its remaining activity at 10 µM is 84%.

**Q.** And the remaining activity at 10 µM (PAK3(h))?
**A.** The remaining activity at 10 µM was 70%.

**Q.** What about the remaining activity at 10 µM (PAK4(h)) of the same compound?
**A.** Its remaining activity at 10 µM is 97%.

**Q.** And the remaining activity at 10 µM (PKR(h))?
**A.** Its remaining activity at 10 µM is 97%.

**Q.** What about the remaining activity at 10 µM (Src(1-530)(h)) of the same compound?
**A.** The remaining activity at 10 µM was 85%.

**Q.** And the remaining activity at 10 µM (TLK2(h))?
**A.** Its remaining activity at 10 µM is 88%.

**Q.** And the remaining activity at 10 µM (ZAK(h))?
**A.** Its remaining activity at 10 µM is 85%.

**Q.** What about the remaining activity at 10 µM (p70S6K(h)) of the same compound?
**A.** Its remaining activity at 10 µM is 61%.

From publication PMC9719519, “Non-classical ferroptosis inhibition by a small molecule targeting PHB2” (Nature Communications, 2022)
